Reference: patent publication US7851610B2, “Transporter protein” (Ajinomoto Co., Ltd., priority 2003, dated 2010)

T1: MHPH6 (Microbacterium maritypicum, UniProt D6R8X8)
T1 construct: expressed in transfected cells; host or cells: E. coli BLR transformed with pSHP11H (pTTQ18 derivative), IPTG-induced
T1 sequence (D6R8X8 with tags, fused parts or gaps): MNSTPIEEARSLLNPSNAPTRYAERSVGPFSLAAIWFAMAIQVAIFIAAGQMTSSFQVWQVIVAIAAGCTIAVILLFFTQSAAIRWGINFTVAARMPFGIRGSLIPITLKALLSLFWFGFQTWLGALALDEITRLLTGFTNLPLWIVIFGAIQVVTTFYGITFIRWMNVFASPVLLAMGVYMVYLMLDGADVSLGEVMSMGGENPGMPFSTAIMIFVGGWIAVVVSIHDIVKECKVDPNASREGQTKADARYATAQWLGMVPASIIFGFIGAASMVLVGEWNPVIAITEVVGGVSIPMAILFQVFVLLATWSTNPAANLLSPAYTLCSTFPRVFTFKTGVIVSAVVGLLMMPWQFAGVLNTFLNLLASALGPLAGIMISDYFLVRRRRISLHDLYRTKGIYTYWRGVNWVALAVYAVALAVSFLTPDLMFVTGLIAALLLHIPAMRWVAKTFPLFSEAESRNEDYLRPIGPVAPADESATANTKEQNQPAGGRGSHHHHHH


How the values were obtained:
[1] = target: T1, MHPH6; test: Substrate screening: competitive inhibition of 3H-L-BH uptake by E. coli BLR/pSHP11H; type: cell-based, Microbacterium liquefaciens AJ3912; conditions: for competitive inhibitory activity against L-BH uptake (in words): 250 μM cold candidate; for competitive inhibitory activity against L-BH uptake (in words) / uptake activity of 3H-L-BH (relative activity, no compound added = 100%): uptake after 3 minutes; for uptake activity of 3H-L-BH (relative activity, no compound added = 100%): 250 μM cold compound; for relative affinity for MHPH6 (affinity of L-BH = 1): curve-fitted assuming simple competitive inhibition, variety of concentrations
Protocol: 25 μM of ^3H-L-BH was employed as the RI-labeled substrate in the above-described reaction using intact cells, and a reaction liquid was prepared by adding 250 μM of a candidate substrate (cold). The uptake amount of ^3H-L-BH after 3 minutes from the addition thereof was compared with the amount without the candidate substrate, to calculate the competitive inhibitory activity of each candidate substrate against L-BH, for evaluating the potentiality of each candidate substance as the substrate for MHP.
Affinity of a variety of compounds to MHPH6 was measured based on the competitive inhibitory activity thereof against L-BH uptake by E. coli BLR/pSHP11H, to search for substrates for MHPH6 (FIG. 8). […] When the four compounds showing strong inhibitive activity were added, the uptake activities of ^3H-L-BH (the relative activity with respect to when not adding any compound as 100%) were 7% (L-BH, theoretical value 9%), 47% (D-BH), 3% (L-IMH) and 24% (D- IMH).
The competitive inhibition experiments were carried out, as for substrate screening, with a variety of substrate concentrations. As a result, the affinity of D- and L-BH and D- and L-IMH for MHPH6 was different from one another, and the intensity of the affinity was in the order of L-IMH (solid triangle), L-BH (solid circle), D-IMH (open triangle) and D-BH (open circle) from the strongest. Assuming that ^3H-L-BH and the added cold compound were under simple competitive inhibition, the experimental results were curve-fitted. As a result, the relative affinity for each compound was calculated to be 5.32 (L-IMH), 1.05 (L-BH, experimental value), 0.96 (D-IMH), and 0.20 (D-BH), with respect to the affinity of L-BH and MHPH6 being 1.

[2] = target: T1, MHPH6; test: Uptake assay using intact cells of E. coli BLR/pSHP11H (RI-labelled substrate); type: cell-based; conditions: for initial uptake rate / uptake amount 5 minutes after the addition of the substrate: induced E. coli BLR/pSHP11H, 25 μM substrate; for initial uptake rate: data at 15 seconds after substrate addition; for uptake amount 5 minutes after the addition of the substrate: pH 6.6, 25° C., per dry cell weight
Description: The activity of the hydantoin transporter can be measured by an uptake assay using intact cells. The uptake assay using intact cells may be carried out in accordance with the method of West, and Henderson (I. C. West (1970) Lactose transport coupled to proton movements in Escherichia coli, Biochem. Biophys. Res. Commun. 41: 655-661; P. J. F. Henderson and A. J. S. Macpherson (1986), Assay, genetics, proteins, and reconstitution of proton-linked galactose, arabinose, and xylose transport systems of Escherichia coli, Methods Enzymol. 125: 387-429).
Specifically, the uptake reaction may be carried out by adding an RI-labelled substrate (^3H—BH (benzyl hydantoin), ^3H—IMH (indolylmethyl hydantoin)) to a suspension of the cells that express the hydantoin transporter. After initiating the reaction, sampling may be conducted at time intervals. Immediately after sampling, each aliquot may be collected by a filter of 0.45 μm pore size (preincubated in a washing liquid of 150 mM KCl, 5 mM MES (pH 6.6)) and washed thoroughly by the rinsing liquid. Thereafter, by measuring radioactivity remaining on the filter with a liquid scintillation counter, the substrate uptaken into the cells is quantified, and the hydantoin-transporter activity can be determined.
The methods of West (I. C. West (1970), Lactose transport coupled to proton movements in Escherichia coli. Biochem. Biophys. Res. Commun. 41: 655-661.) and Henderson (P. J. F. Henderson and A. J. S. Macpherson (1986), Assay, genetics, proteins, and reconstitution of proton-linked galactose, arabinose, and xylose transport systems of Escherichia coli, Methods Enzymol. 125: 387-429.) were employed.
The collected cells were washed three times with 150 mM KCl, 5 mM MES (2-[N-Morpholino]ethanesulphonic acid) (pH 6.6) and were then used in the assay. The basic reaction conditions included uptake initiation by adding glycerol to a final concentration of 20 mM to a cell suspension having an absorbance at about A680 of approximately 2 to 4, followed by aeration at 25° C. for 3 minutes, and then addition of an RI-labelled substrate (relative RI activity: ^3H—BH 107 Bq/nmol, ^3H—IMH 241 Bq/nmol) to a final concentration of 25 μM. After the onset of the reaction (aeration was continued), sampling was done over time. Immediately after the sampling, each aliquot was passed through a filter with a pore size of 0.45 μm (pre-incubated in a washing solution of 150 mM KCl and 5 mM MES (pH 6.6)) which was then washed sufficiently with a washing solution. The radiation remaining on the filter was measured by a liquid scintillation counter. The uptake activity was expressed in terms of the dry cell weight that was calculated by taking the absorbance A680=1 as the dry cell concentration of 0.68 mg/ml (Ashworth and Kornberg, Biological Science, 165(999):179-188 (1966)). Furthermore, the initial uptake rate was calculated based on the data obtained at 15 seconds after the addition of substrate, and expressed in terms of the uptake amount per minute.
In the measurement of the inhibitory activity of the inhibitor, the inhibitor was added at the time of onset of aeration. That is, it was pre-incubated with the cells for 3 minutes prior to the substrate addition. The inhibitor used was 2,4-dinitrophenol (DNP), and the final concentration during the reaction was 20 mM.
For varying the pH of the reaction liquid, 10 mM potassium acetate (pH 4.0), 5 mM MES (pH 4.9, 6.1, 6.6, 7.1, 7.9), 10 mM Tris-HCl (pH 8.0) and 10 mM glycin-NaOH (pH 10.0) were used when appropriate.

[3] = CD spectroscopy heat stability of purified MHPH6; type: physicochemical
Protocol: The buffer solution suspending the purified MHPH6 was replaced by 10 mM sodium phosphate (pH 7.6) with 0.05% (w/v) DDM, using an ultrafiltration apparatus (Centricon C50, Millipore). In this buffer solution, the protein concentration was adjusted to 50 μg/ml, and the CD spectroscopy was carried out at 10° C. (JASCO J-715 Spectropolarimeter). The measurement was performed at a wavelength ranging from 190 to 260 nm, and the average value of twenty measurements was taken. Furthermore, the change in the secondary structure of MHPH6 (heat stability) was observed by measuring the change of the CD unit value at a wavelength of 222 nm as the temperature of the sample was varied from 10° C.→90° C.→10° C. (the temperature change was made 10° C. at a time, and the length of time at each temperature was approximately 10 minutes).

[4] = CD at 222 nm, 10 mM sodium phosphate pH 7.6, 0.05% DDM

| Molecule | competitive inhibitory activity against L-BH uptake (in words) ([1]; 25 μM 3H-L-BH) | uptake activity of 3H-L-BH (relative activity, no compound added = 100%) ([1]; 25 μM 3H-L-BH) [%] | relative affinity for MHPH6 (affinity of L-BH = 1) [1] | also measured |
| --- | --- | --- | --- | --- |
| O=C1NC(=O)[C@@H](Cc2ccccc2)N1 [D-BH] | strong activity of competitive inhibition | 47 | 0.20 | – |
| O=[N+]([O-])c1ccc(O)c([N+](=O)[O-])c1 [DNP, 2,4-dinitrophenol, reference compound] | – | – | – | effect on L-IMH uptake, induced sample ([2]; DNP 20 mM, pre-incubated 3 minutes, induced sample): decreased the amount of L-IMH uptake; effect on L-IMH uptake, uninduced sample ([2]; DNP 20 mM, pre-incubated 3 minutes, uninduced sample): substantially no effect |
| O=C1NC(=O)[C@@H](Cc2c[nH]c3ccccc23)N1 [D-IMH] | strong activity of competitive inhibition | 24 | 0.96 | – |
| CC(C)[C@@H]1NC(=O)NC1=O [5-L-isopropyl hydantoin] | Weaker inhibitory activity | – | – | – |
| O=C1NC(=O)C(Cc2ccc(O)cc2)N1 (racemic) [5-DL-p-hydroxybenzyl hydantoin] | Weaker inhibitory activity | – | – | – |
| NC(=O)NC1NC(=O)NC1=O (centres unmarked) [allantoin, reference compound] | did not result in any inhibition | – | – | – |
| CC(C)C[C@@H]1NC(=O)NC1=O [5-L-isobutyl hydantoin] | Weaker inhibitory activity | – | – | – |
| O=C1NC(=O)C(Cc2ccccc2)N1 [L-BH, 5-L-benzyl hydantoin] | strong activity of competitive inhibition | 7 | 1.05 | initial uptake rate [2]: 0.64 nmol/mg/min; uptake amount 5 minutes after the addition of the substrate [2]: 0.27 nmol/mg; uptake activity of 3H-L-BH, theoretical value ([1]; 250 μM cold L-BH, 25 μM 3H-L-BH): 9% |
| O=C1NC(=O)[C@H](Cc2c[nH]c3ccccc23)N1 [L-IMH, 5-L-indolylmethyl hydantoin] | strong activity of competitive inhibition | 3 | 5.32 | initial uptake rate [2]: 2.5 nmol/mg/min; uptake amount 5 minutes after the addition of the substrate [2]: 0.91 nmol/mg; initial uptake rate as compared with the initial rate at pH 6.6 ([2]; pH 4.0): approximately 10%; initial uptake rate as compared with the initial rate at pH 6.6 ([2]; pH 10.0): approximately 10%; pH at which initial uptake rate is maximal ([2]; pH varied between 4.0 and 10.0, induced and uninduced samples): 6.6; initial uptake rate, L-IMH relative to L-BH ([2]; ratio L-IMH / L-BH): 3.9 times; uptake amount 5 minutes after addition of substrate, L-IMH relative to L-BH ([2]; ratio L-IMH / L-BH): 3.4 times; affinity relative to that of L-BH (estimated) ([1]; L-IMH versus L-BH): approximately 5 times |
| CC(C)CC1NC(=O)NC1=O (racemic) [5-DL-isobutyl hydantoin] | Weaker inhibitory activity | – | – | – |
| CC(C)C1NC(=O)NC1=O (racemic) [5-DL-isopropyl hydantoin] | Weaker inhibitory activity | – | – | – |
| CC1NC(=O)NC1=O (racemic) [5-DL-methyl hydantoin] | Weaker inhibitory activity | – | – | – |
| MHPH6: MHP hydantoin transporter protein containing the RGSHis6-Tag at the C-terminal (SEQ ID No. 3/4) (protein, C-terminal RGSHis6 tag; RGSH6) MNSTPIEEARSLLNPSNAPTRYAERSVGPFSLAAIWFAMAIQVAIFIAAGQMTSSFQVWQVIVAIAAGCTIAVILLFFTQSAAIRWGINFTVAARMPFGIRGSLIPITLKALLSLFWFGFQTWLGALALDEITRLLTGFTNLPLWIVIFGAIQVVTTFYGITFIRWMNVFASPVLLAMGVYMVYLMLDGADVSLGEVMSMGGENPGMPFSTAIMIFVGGWIAVVVSIHDIVKECKVDPNASREGQTKADARYATAQWLGMVPASIIFGFIGAASMVLVGEWNPVIAITEVVGGVSIPMAILFQVFVLLATWSTNPAANLLSPAYTLCSTFPRVFTFKTGVIVSAVVGLLMMPWQFAGVLNTFLNLLASALGPLAGIMISDYFLVRRRRISLHDLYRTKGIYTYWRGVNWVALAVYAVALAVSFLTPDLMFVTGLIAALLLHIPAMRWVAKTFPLFSEAESRNEDYLRPIGPVAPADESATANTKEQNQPAGGRGSHHHHHH | – | – | – | temperature at which higher structure began to be destroyed [3, 4]: ≥ 30 °C; temperature at which higher structure was almost completely destroyed [3, 4]: 70 °C; reversibility of thermal denaturation ([3]; temperature 10→90→10° C.): irreversible |
